This assay has as its target Gag-Pol polyprotein (Human immunodeficiency virus type 1 group M subtype B (isolate HXB2), UniProt P04585). Description: HIV-1 RT In-Vitro Assay. On the procedure:
The reaction mixture was set with template primer complex, RT enzyme and dNTPs in a lysis buffer with or without inhibitors. The reaction mixture was incubated at 37 °C for 1 h and then transferred to streptavidine-coated microtitre plate (MTP). The biotin-labeled dNTPs that were incorporated in the template due to activity of RT, bound to streptavidine. The unbound dNTPs were washed using wash buffer and anti-DIG-POD was added to the MTP. The DIG-labeled dNTPs incorporated in the template were bound to an anti-DIG-POD antibody. The unbound anti-DIG-POD was washed again with washing buffer and the peroxide substrate (ABST) was added to the MTP. A colored reaction product was produced during the cleavage of the substrate catalyzed by a peroxide enzyme. The absorbance of the sample was determined as an optical density (OD) at 405 nm using a micro titer plate ELISA reader.
Regarding `CC1CC(=O)Nc2ccccc2N1C(=O)c1ccccc1` (centres undefined) [5-(benzoyl)-4-methyl-1,3,4,5-tetrahydro-2H-1,5-benzodiazepin-2-one (A1)], the IC50 – broadly, the concentration at which inhibition is half-maximal – came out at 17.5 µM. In other words, the double-digit micromolar range.

With `CC1CC(=O)Nc2ccccc2N1C(=O)c1ccccc1Br` (centres undefined) [5-(2-bromobenzoyl)-4-methyl-1,3,4,5-tetrahydro-2H-1,5-benzodiazepin-2-one (A13)], 92.5 µM corresponded to half-maximal inhibition (IC50).

Compound `CC1CC(=O)Nc2ccccc2N1C(=O)c1ccccc1Cl` (centres undefined) [5-(2-chlorobenzoyl)-4-methyl-1,3,4,5-tetrahydro-2H-1,5-benzodiazepin-2-one (A10)] gave an IC50 of 8.62 µM.

With `CC1CC(=O)Nc2ccccc2N1C(=O)c1ccccc1F` (centres undefined) [5-(2-fluorobenzoyl)-4-methyl-1,3,4,5-tetrahydro-2H-1,5-benzodiazepin-2-one (A7)], the IC50 was more than 100 µM.

Turning to `COc1cccc(C(=O)N2c3ccccc3NC(=O)CC2C)c1` (centres undefined) [5-(3-methoxybenzoyl)-4-methyl-1,3,4,5-tetrahydro-2H-1,5-benzodiazepin-2-one (A5)], the IC50 was 87.9 µM.

In turn, `CC1CC(=O)Nc2ccccc2N1C(=O)c1ccc(F)cc1` (centres undefined) [5-(4-fluorobenzoyl)-4-methyl-1,3,4,5-tetrahydro-2H-1,5-benzodiazepin-2-one (A9)] had an IC50 of 25 µM.

For `CC1CC(=O)Nc2ccccc2N1C(=O)c1cccc(Cl)c1` (centres undefined) [5-(3-chlorobenzoyl)-4-methyl-1,3,4,5-tetrahydro-2H-1,5-benzodiazepin-2-one (A11)], half-maximal inhibition (IC50) was put at 6.87 µM.

For the compound `Cc1ccccc1C(=O)N1c2ccccc2NC(=O)CC1C` (centres undefined) [5-(2-methylbenzoyl)-4-methyl-1,3,4,5-tetrahydro-2H-1,5-benzodiazepin-2-one (A2)], the midpoint of inhibition, the IC50, lay at 14.3 µM.

In turn, `COc1ccc(C(=O)N2c3ccccc3NC(=O)CC2C)cc1` (centres undefined) [5-(4-methoxybenzoyl)-4-methyl-1,3,4,5-tetrahydro-2H-1,5-benzodiazepin-2-one (A6)] yielded an IC50 of 54.6 µM.

With `CC1CC(=O)Nc2ccccc2N1C(=O)c1ccc(Br)cc1` (centres undefined) [5-(4-bromobenzoyl)-4-methyl-1,3,4,5-tetrahydro-2H-1,5-benzodiazepin-2-one (A14)], the IC50 came to 68.7 µM.

With `Cc1cccc(C(=O)N2c3ccccc3NC(=O)CC2C)c1` (centres undefined) [5-(3-methylbenzoyl)-4-methyl-1,3,4,5-tetrahydro-2H-1,5-benzodiazepin-2-one (A3)], the IC50 is 26.4 µM.

For the compound `Cc1ccc(C(=O)N2c3ccccc3NC(=O)CC2C)cc1` (centres undefined) [5-(4-methylbenzoyl)-4-methyl-1,3,4,5-tetrahydro-2H-1,5-benzodiazepin-2-one (A4)], the IC50 is more than 100 µM.

With `CC1CC(=O)Nc2ccccc2N1C(=O)c1cccc(F)c1` (centres undefined) [5-(3-fluorobenzoyl)-4-methyl-1,3,4,5-tetrahydro-2H-1,5-benzodiazepin-2-one (A8)], the IC50 was determined as 76.3 µM.

With `CC1CC(=O)Nc2ccccc2N1C(=O)c1ccc(Cl)cc1` (centres undefined) [5-(4-chlorobenzoyl)-4-methyl-1,3,4,5-tetrahydro-2H-1,5-benzodiazepin-2-one (A12)], half-maximal inhibition (IC50) was put at 38.3 µM.

(Values after BindingDB's records for doi:10.1016/j.bioorg.2017.03.013 (Birla Institute of Technology, 2017).)
